Laboratory results: the supplement of paper PMC10307832

Tests used:
Experiment in all cases: relative viability (nuclei count vs DMSO), 5 days (fraction); higher = more cells survive
[1] = compound: N=C1NC(=O)/C(=C/c2ccc(O)cc2)S1 [Mirin] + CC(C)C[C@H](NC(=O)[C@H](Cc1ccccc1)NC(=O)c1cnccn1)B(O)O [Bortezomib] (partner 0.002 µM)
Outline: (§1)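 Relative viability equals treated-well nuclei counts divided by vehicle-well nuclei counts. Counts came from 4× images of lung cancer cell lines grown in 1536-well plates for 5 days after pin-tool dosing on the day after seeding. Dosing used one drug alone or a fixed anchor-drug dose plus five library-drug doses (not always all listed) in √10 steps, and values are medians of duplicate plates.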

[2] = compound: CCn1c(-c2nonc2N)nc2cnc(Oc3cccc(NC(=O)c4ccc(OCCN5CCOCC5)cc4)c3)cc21 + COc1cc2c(Oc3ccc(NC(=O)C4(C(=O)Nc5ccc(F)cc5)CC4)cc3F)ccnc2cc1OCCCN1CCOCC1 [Foretinib] (partner 0.25 µM)
Outline: as §1

[3] = compound: CCC1=CN=CN=C1N2CCN(CC2)CC3=NC4=C(N3)C=C(C=C4)C(F)(F)F + COc1cc2c(Oc3ccc(NC(=O)C4(C(=O)Nc5ccc(F)cc5)CC4)cc3F)ccnc2cc1OCCCN1CCOCC1 [Foretinib] (partner 0.25 µM)
Outline: as §1

[4] = compound: N=C1NC(=O)/C(=C/c2ccc(O)cc2)S1 [Mirin] + CCNC(=O)c1noc(-c2cc(C(C)C)c(O)cc2O)c1-c1ccc(CN2CCOCC2)cc1 [Luminespib] (partner 0.01 µM)
Outline: as §1

Row | Cell Line | relative viability ([1]; first compound 0.25 µM) | relative viability ([1]; first compound 0.7906 µM) | relative viability ([1]; first compound 2.5 µM) | relative viability ([1]; first compound 7.906 µM) | relative viability ([1]; first compound 25 µM) | relative viability ([2]; first compound 0.04 µM) | relative viability ([2]; first compound 0.1265 µM) | relative viability ([2]; first compound 0.4 µM) | relative viability ([2]; first compound 1.265 µM) | relative viability ([2]; first compound 4 µM) | relative viability ([3]; first compound 0.04 µM) | relative viability ([3]; first compound 0.1265 µM) | relative viability ([3]; first compound 0.4 µM) | relative viability ([3]; first compound 4 µM) | relative viability ([4]; first compound 0.25 µM) | relative viability ([4]; first compound 0.7906 µM) | relative viability ([4]; first compound 2.5 µM) | relative viability ([4]; first compound 7.906 µM) | relative viability ([4]; first compound 25 µM) | relative viability ([3]; first compound 1.265 µM)
1 | EMC-BAC-2 | 1.11 | 1.08 | 1.07 | 1.05 | 1.11 | 0.988 | 1 | 0.973 | 0.644 | 0.565 | 1 | 0.943 | 1.03 | 0.914 | 1.08 | 1.13 | 1.13 | 1.17 | 1.1 | –
2 | NCI-H2087 | 0.885 | 0.826 | 0.87 | 0.924 | 1.16 | 1.1 | 0.911 | 1.01 | 0.876 | 0.695 | 1 | 1.06 | 0.916 | 0.535 | 0.184 | 0.135 | 0.169 | 0.161 | 0.158 | 1.05
3 | NCI-H650 | 0.915 | – | 0.84 | – | 0.937 | 1.12 | 0.774 | 0.531 | 0.366 | 0.438 | 1.16 | 1.09 | 1.05 | 1.03 | 0.741 | 0.7 | 0.857 | – | 0.811 | 0.934
4 | LXF-289 | 0.99 | 1.08 | 1.01 | 1.02 | 1.11 | 1.06 | 1.02 | 0.982 | 0.936 | 0.882 | 1.03 | 0.949 | 0.971 | 0.934 | 0.662 | 0.689 | 0.651 | 0.666 | 0.634 | 0.937
5 | LOU-NH91 | 0.417 | – | 0.47 | 0.455 | 0.503 | 0.92 | 0.83 | 0.697 | 0.47 | 0.525 | 0.863 | 0.984 | 0.909 | 0.92 | 0.304 | 0.301 | 0.351 | 0.322 | 0.295 | 0.966
6 | NCI-H2347 | 0.824 | 1.02 | 1.32 | 0.639 | 1.01 | 1.08 | 1.27 | 1.26 | 0.459 | 0.585 | 0.8 | 0.714 | 0.798 | 0.896 | 0.33 | 0.295 | 0.372 | 0.409 | 0.575 | –
7 | NCI-H1993 | 1.04 | 1.12 | 1.06 | 1.02 | 0.972 | 0.84 | 0.765 | 0.659 | 0.795 | 0.723 | 0.844 | 0.73 | 0.668 | 0.668 | 0.777 | – | 0.778 | 0.729 | 0.734 | 0.682
8 | HCC-827 | 1.07 | 1.08 | 1.01 | 1.07 | 1.15 | 1.11 | 1.05 | 0.996 | 0.877 | 0.751 | 0.962 | 0.945 | 1.02 | 0.826 | 0.673 | 0.665 | 0.724 | 0.841 | 1.03 | –
9 | NCI-H661 | 0.696 | 0.787 | 0.836 | 0.518 | 0.527 | 0.966 | 0.846 | 0.925 | 0.801 | 0.522 | 0.973 | 1.03 | 1.04 | 0.834 | 0.929 | 1.03 | 0.945 | 0.978 | 0.97 | 0.943
10 | CAL-12T | 0.921 | – | 0.967 | – | 1.43 | 1.42 | 1.3 | 1.28 | 0.793 | 0.51 | 1.08 | 1.1 | 1.07 | 0.968 | 0.364 | – | 0.369 | 0.696 | 0.548 | 1.12
11 | PC-14 | 0.895 | 0.852 | 0.894 | 1.06 | 1.04 | 0.927 | 0.84 | 0.761 | 0.718 | 0.72 | 1.01 | 0.825 | 0.947 | 0.997 | 0.177 | 0.142 | 0.191 | 0.187 | 0.144 | 0.963
12 | NCI-H23 | 1.3 | – | 1.15 | 0.842 | 0.817 | 1.05 | 0.909 | 0.978 | 0.853 | 0.862 | 0.822 | 0.99 | 0.961 | 0.906 | 0.21 | 0.186 | 0.2 | 0.234 | 0.186 | 0.801
13 | SK-LU-1 | 1.22 | 1.22 | 1.19 | – | 1.15 | 0.837 | 0.621 | 0.587 | 0.333 | 0.318 | 0.876 | 0.785 | 0.76 | 0.77 | 0.193 | 0.188 | 0.228 | 0.163 | 0.197 | 0.813
14 | NCI-H727 | 1.24 | 1.18 | 0.832 | 0.997 | 0.907 | 1.08 | 0.888 | 0.852 | 1.15 | 1.15 | 0.854 | 0.811 | 0.693 | 0.949 | 0.515 | 0.307 | 0.453 | 0.265 | 0.316 | 0.573
